# Reference: a melting point compilation (Tetko et al.; mined from patent text by program, amines drawn as free bases though some values may be those of a salt)
row,SMILES,melting point
1,c1ccc(Sc2ccc(-c3ccc(Sc4ccccc4)cc3)cc2)cc1,116 to 117 °C
2,COc1c2c(cc3ccc(=O)oc13)CC(OC)O2 (stereo not given),131 to 132 °C
3,CCCn1c(COCC)nc2c(N)nc3ccc(OCC(=O)N4CCS(=O)(=O)CC4)cc3c21,223 to 225 °C
4,CCCCCCOc1ccc2cc([C@H]3CC[C@H](CCCCCC)CC3)ccc2c1,48 °C
5,Cc1cccc(-n2nc(C)c3c(=O)c4cc(F)c(F)cc4[nH]c32)n1,301 to 302 °C
6,COc1ccc(-c2c(Cl)c(CN3C(=O)CCC3=O)nc3sc4c(c23)CCC(=O)C4)cc1,257 to 258 °C
7,CC(CNS(C)(=O)=O)n1nnc2cc3c(=O)n(C4CC4)nnc3cc2c1=O (stereo not given),195 to 197 °C
8,CCOC(=O)c1ccc(C(C)=Cc2ccc3ccccc3c2)cc1,96 °C
9,O=C(c1ccc(Cl)cc1)c1ccc([N+](=O)[O-])cc1,97 to 98 °C
10,[N-]=[N+]=NCCOc1ccc(C(=C(c2ccc(F)cc2)C(F)(F)F)c2ccccc2)cc1,100 to 110 °C
11,C#CCNc1ccc([N+](=O)[O-])cc1C(F)(F)F,71 to 72 °C
12,CCCCc1ccc(N2CCN(C(=O)Nc3nc(C)c(C)nc3OC)CC2)cc1,121 to 123 °C
13,CC(C)(C)n1ncc(S)c(Br)c1=O,107 to 110 °C
14,O=c1c2cccc(F)c2nc2sccn12,187 to 189 °C
15,NC(=O)c1cccc(C(N)=O)c1[N+](=O)[O-],283 to 285 °C
16,COC(=O)C1=Cc2cc(Br)ccc2N(C(=O)OC)CC1,135 to 136 °C
17,COc1ccc(C2SCCS2)cc1,62 to 63 °C
18,COc1ccc(C)cc1NC(=O)Nc1ccc(N2CCN(C(=O)Nc3ccc(CO)cc3Cl)CC2)cc1,152 to 155 °C
19,Cn1c(Cn2ccnc2)nc2ccccc21,151 to 152 °C
20,CCOC(=O)c1c(C(F)(F)F)nc(C)c(-c2ccccc2)c1O,82 to 84 °C
21,O=C1CCC(N2Cc3cc(CNC(=O)Nc4cccc(Oc5ccccn5)c4)ccc3C2=O)C(=O)N1 (stereo not given),298 to 300 °C
22,CCCc1ccc(C(=O)Nc2ccc3c(c2)CCCC3=O)cc1,168 to 170 °C
23,Cn1c(-c2ccc(F)cc2)cc(=O)c(C(=O)O)c1-c1ccc(F)cc1,191 to 193 °C
24,CC(=O)Nc1ccc(OC(F)(F)F)cc1-c1ccccc1,94 °C
25,CCc1c(CO)[nH]c(=O)c(I)c1Oc1cc(C)cc(C)c1,70 °C

row,SMILES,melting point
1,COc1cc(N2CCN(Cc3ccccc3)CC2)c2ncccc2c1C,129 to 133 °C
2,CCOCc1nc2c(c(C)c(C)n3nnnc23)n1CCNC(=O)N1CCOCC1,205 to 207 °C
3,C=CCN1C(=O)NCC1c1ccc(OC)c(OC2CC3CCC2C3)c1 (stereo not given),110 to 113 °C
4,CCS(=O)(=O)N[C@H](C(=O)NCCc1cc(Br)c(O)c(OC)c1)C(C)C,145 to 147 °C
5,CC(C)CCNC(=S)c1ccc2c(c1)N(C(C)CN1CCC[C@@H]1CO)c1ccccc1S2 (stereo not given in full),140 °C
6,Cc1c(-c2ccc(C(F)(F)F)cc2)n(Cc2ccc(OCCN3CCCCC3)cc2)c2ccc(O)cc12,174 °C
7,CCCCCCCCCCCCCCCCCC1=NCCO1,52 to 53 °C
8,CCn1c(=O)c(C(=O)NCCOC)c(O)c2ccc(C)nc21,118 to 120 °C
9,CN(C)Cc1ccc(CSCCNc2nc(N)n[nH]2)o1,76 to 78.5 °C
10,O=C(O)c1ccc(OCCCCCCc2cccc(O)c2O)c(Cl)c1,157 to 160 °C
11,CC(=O)Oc1cc(S(=O)(=O)Oc2ccc(C(=O)c3c(Cc4ccccc4)sc(C)c3C)cc2C2CCCC2)ccc1C(=O)O,94 to 96 °C
12,CCOC(=O)C(F)(F)C(O)C(CC(C)C)NC(=O)OC(C)(C)C (stereo not given),72 to 76 °C
13,Cc1nccnc1OCC1COC(C)(C)O1 (stereo not given),77 to 78 °C
14,Cn1nc2c(-c3ccc(Cl)cc3Cl)cccc2c1C(=O)NCCO,188 to 190 °C
15,N#Cc1ccc(Oc2ccc(Cl)c(Cl)c2)c(C=O)c1,122 to 126 °C
16,COC(=O)c1c(Sc2ccc(OC)cc2)nc(C(=O)c2ccccc2)n1Cc1cc2c(cc1Cl)OCO2,166 °C
17,Cn1cncc1C(O)(c1ccc(Cl)cc1)c1ccc2nc(C=O)cc(-c3cccc(Cl)c3)c2c1 (stereo not given),205 °C
18,COc1ccc(C(=O)c2c(N)sc3c2CN(C(=O)OCc2ccccc2)C3)cc1OC,195 to 196 °C
19,CCn1cc(OS(C)(=O)=O)c(=O)c2ccccc21,141 to 143 °C
20,CCCNC1=NS(=O)(=O)c2c(sc(C)c2C#N)N1C(=O)OCC,175 to 179 °C
21,Cc1cc(Cc2cnc(N)nc2N)cc(C)c1N(C)C,162 to 163 °C
22,CCCCOCCCOCCCCCCNCC(O)c1cc(Cl)c(N)c(Cl)c1 (stereo not given),49 to 51 °C
23,CC1(C)CCC(C)(C)c2cc(-c3cc(-c4ccc(C(=O)O)c(O)c4)ccc3-c3ccccc3)ccc21,134 to 136 °C
24,CCOC(=O)c1c(SC)n(-c2ccc(F)cc2)c2cc(F)c(F)cc2c1=O,167 °C
25,O=C(O)CCCN(C(=O)c1ccc(Cl)cc1)c1cccc2ccccc12,173 to 174 °C
